Results: patent US10633386B2, “BET protein degraders” (THE REGENTS OF THE UNIVERSITY OF MICHIGAN, priority 2016, dated 2020)
Where two headings read alike, the source gives them in different places.

Legend:
LS513 = assay: Cell growth inhibition (CellTiter-Glo), colon cancer line LS513; type: cell-based
Procedure: (§1) Cell growth inhibitory activity of representative BET bromodomain degraders in representative non-small cell lung cancer cell lines was determined using the CellTiter-Glo® Luminescent Cell Viability Assay. Cells were seeded in 384-well white opaque cell culture plates at a density of 2,000 cells/well with serially diluted compounds and incubated at 37° C. in an atmosphere of 95% air and 5% CO2 for 4 days. Cell viability was determined using the CellTiter-Glo® Luminescent Cell Viability Assay Kit (Promega, Madison, Wis.) according to the manufacture's instruction. Briefly, a volume of CellTiter-Glo® Reagent equal to the volume of cell culture medium was added to each well, and then the plates were incubated at room temperature for 10-20 minutes. The luminescent signal was measured using a Tecan Infinite M1000 multimode microplate reader (Tecan, Morrisville, N.C.). The half maximal inhibitory concentration (IC50) was calculated using the GraphPad Prism 5 software (GraphPad Software, La Jolla, Calif.). Cpd. A is a BET bromodomain inhibitor, see U.S. Appl. No. 62/121,637, having the following structure:
(§2) Cell growth inhibitory activity of representative BET bromodomain degraders in representative colon cancer cell lines, see Table 7, was determined as described in Example 17.

SW403 = assay: Cell growth inhibition (CellTiter-Glo), colon cancer line SW403; type: cell-based
Procedure: as §1, §2

LS411N = assay: Cell growth inhibition (CellTiter-Glo), colon cancer line LS411N; type: cell-based
Procedure: as §1, §2

HT-29 = assay: Cell growth inhibition (CellTiter-Glo), colon cancer line HT-29; type: cell-based; settings: HT-29 colon cancer cell line
Procedure: as §1, §2

H1869 = assay: Cell growth inhibition (CellTiter-Glo), NSCLC line H1869; type: cell-based; settings: H1869 non-small cell lung cancer cell line, 4 days
Procedure: as §1, with “Appl.” for “Appl. No. 62/121,637, having the following structure:”

HCC1395 = assay: Cell growth inhibition (CellTiter-Glo), breast cancer line HCC1395; type: cell-based; settings: 4 days
Procedure: (§3) Cell growth inhibitory activity of representative BET bromodomain degraders in representative breast cancer cell lines was determined using the CellTiter-Glo® Luminescent Cell Viability Assay. SUM-52 and SUM-159 cell lines were established at the University of Michigan Comprehensive Cancer Center. All the other breast cancer cell lines were obtained from the ATCC (Manassas, Va.). Cells were seeded in 384-well cell culture plates at a density of 1,000-2,500 cells/well with serially diluted compounds and incubated at 37° C. in an atmosphere of 95% air and 5% CO2 for 4 days. Cell viability was determined using the CellTiter-Glo® Luminescent Cell Viability Assay Kit (Promega, Madison, Wis.) according to the manufacture's instruction. Briefly, a volume of CellTiter-Glo® Reagent equal to the volume of cell culture medium was added to each well, and then the plates were incubated at room temperature for 20-60 minutes. The luminescent signal was measured using a Tecan Infinite M1000 multimode microplate reader (Tecan, Morrisville, N.C.). The half maximal inhibitory concentration (IC50) was calculated using the GraphPad Prism 5 software (GraphPad Software, La Jolla, Calif.). “Thd” is thalidomide.

MDA-MB-468 = assay: Cell growth inhibition (CellTiter-Glo), breast cancer line MDA-MB-468; type: cell-based; settings: MDA-MB-468 breast cancer cell line, 4 days
Procedure: as §3

H2444 = assay: Cell growth inhibition (CellTiter-Glo), NSCLC line H2444; type: cell-based; settings: H2444 non-small cell lung cancer cell line, 4 days
Procedure: as §1, with “Appl.” for “Appl. No. 62/121,637, having the following structure:”

HCC1428 = assay: Cell growth inhibition (CellTiter-Glo), breast cancer line HCC1428; type: cell-based; settings: 4 days
Procedure: as §3

HCC1937 = assay: Cell growth inhibition (CellTiter-Glo), breast cancer line HCC1937; type: cell-based; settings: 4 days
Procedure: as §3

BET proteins = assay: Pharmacodynamic study of MDA-MB-231 xenograft tumors (western blot); type: in vivo; settings: mice
Procedure: Pharmacodynimic studies of MDA-MB-231 xenograft tumors treated with BET degraders Cpd. No. 9, see FIG. 5, and Cpd. No. 4. MDA-MB-231 xenografts were treated with drugs for the indicated time points. Resected xenograft tumor tissues were grinded into powder in liquid nitrogen and lysed in lysis buffer [1% CHAPS, 150 mM NaCl, 20 mM Tris-HCl, 1 mM. EDTA, 1 mM EGTA, and COMPLETE proteinase inhibitor (Roche)] for 2 freeze-thaw (−80° C. to room temperature) cycles then another 30 minutes on ice. Protein concentrations were determined using the Bio-Rad Protein Assay Dye reagent. Whole tumor lysates (20 μg) were separated on a 4-20% Novex gels (Invitrogen). The separated proteins were transferred to a PVDF membrane (BIO-RAD) and the PVDF membrane was then blotted with 5% Blotting-Grade Blocker (BIO-RAD) for 1 hour at room temperature. The primary antibodies used were: BRD4 rabbit polyclonal antibody [Bethyl Laboratories, Inc, cat # A301], PARP (46D11) Rabbit mAb [CST #9532] and GAPDH rabbit polyclonal antibody (Santa Cruz Biotechnology, cat # sc-25778 HRP). The secondary antibody used was horseradish peroxidase conjugated goat anti-rabbit (Thermo Scientific Cat #31460). The BIO-RAD Clarity Western ECL Substrates (BIO-RAD) and HyBlot CL film (Denville) were used for signal development and detection using a SRX-101A tabletop processor (Konica Minolta).

SMILES	IC50 (LS513; Homo sapiens, LS-513)	IC50 (SW403; Homo sapiens, SW-403)	IC50 (LS411N; Homo sapiens, LS-411N)	IC50 (HT-29; Homo sapiens)	IC50 (H1869; 96 h)	IC50 (H2444; Homo sapiens, NCI-H2444, 96 h)	IC50 (HCC1395; Homo sapiens, 96 h)	IC50 (MDA-MB-468; Homo sapiens, 96 h)	IC50 (HCC1428; Homo sapiens, 96 h)	IC50 (HCC1937; Homo sapiens, 96 h)	also measured
Cc1sc2c(c1C)C(c1ccc(Cl)cc1)=N[C@@H](CC(=O)NCCCCNC(=O)COc1cccc3c1C(=O)N(C1CCC(=O)NC1=O)C3=O)c1nnc(C)n1-2 (some centres unmarked) [dBET1, reference compound]	–	–	–	–	–	–	–	–	–	–	IC50 (LS513): > 5000 nM; IC50 (SW403): > 5000 nM; IC50 (LS411N): > 5000 nM; IC50 (HT-29): > 5000 nM; IC50 (H1869): > 5000 nM; IC50 (HCC1395): > 5000 nM; IC50 (MDA-MB-468): 1390 nM; IC50 (H2444): 3000 nM; IC50 (HCC1428): > 5000 nM; IC50 (HCC1937): > 5000 nM
CCn1nc(C2CC2)cc1Nc1nc(C(=O)NCCCCNc2cccc3c2C(=O)N(C2CCC(=O)NC2=O)C3=O)nc2[nH]c3cc(-c4c(C)noc4C)c(OC)cc3c12 (centres unmarked) [Cpd. No. 9]	185 ± 60 nM	219 ± 190 nM	560 ± 380 nM	48 ± 2 nM	93 nM	28 nM	–	–	–	–	degradation of BET proteins in MDA-MB-231 tumor tissue (BET proteins; 10 mg/kg, intravenous dosing (FIG. 5)): induces degradation of BET proteins
CCn1nc(C2CC2)cc1Nc1nc(C(=O)NCCCOCCOCCOCCCNc2cccc3c2C(=O)N(C2CCC(=O)NC2=O)C3=O)nc2[nH]c3cc(-c4c(C)noc4C)c(OC)cc3c12 (centres unmarked) [Cpd. No. 4]	70 ± 20 nM	42 ± 10 nM	100 ± 60 nM	32 ± 20 nM	9 nM	4 nM	277 nM	2 nM	13 nM	8 nM	degradation of BET proteins in MDA-MB-231 tumor tissue (BET proteins; 5 mg/kg, intravenous dosing (FIG. 6)): induces degradation of BET proteins
CCn1nc(C2CC2)cc1Nc1nc(COC)nc2[nH]c3cc(-c4c(C)noc4C)c(OC)cc3c12 [Cpd. A, reference compound]	915 ± 670 nM	102 ± 23 nM	110 ± 90 nM	69 ± 1 nM	60 nM	2720 nM	1050 nM	510 nM	50 nM	> 5000 nM	–
